Results from patent US8158575B2, “Agent for the prevention and treatment of sexually transmitted diseases-I” (priority 2001, dated 2012).
Where “and” joins values, the source holds several entries; their conditions need not be identical. Equal entries are not always repeated.

How the values were obtained:
HIV-1 (IIIB) = assay type: cell-based; conditions: strain IIIB (HIV-1), MT-4 cells
Experimental: (§1) The human immunodeficiency virus strains used were HIV-1 (IIIB)^1 and HIV-2 (ROD)^2. Anti-retroviral activity and cytotoxicity measurements were carried out in parallel. […] After the MT-4 cells were allowed to proliferate for 5 days, the number of viable cells was quantified by a tetrazolium-based calorimetric 3-(4,5-dimethylthiazol-2-yl)-2,5-diphenyltetrazolium bromide (MTT) procedure in 96-well microtrays.^3
(§2) In all of these assays, viral input (viral multiplicity of infection, MOI) was 0.01, or 100 times the 50% cell culture infective dose (CCID50). […] Average EC50 and CC50 values for several separate experiments are presented as defined above. […] SI is the antiviral selectivity index CC50/EC50.

HIV-2 (ROD) = assay: Anti-retroviral activity in HIV-infected MT-4 cells (MTT); assay type: cell-based; conditions: strain ROD (HIV-2)
Experimental: as §1, §2

[1] = biological target: T1, cell-to-cell fusion mediated by HIV-1 Env and CD4 (Human immunodeficiency virus type 1 group M subtype B, UniProt P04578); assay type: cell-based; conditions: TC50/IC50
T1 construct: expressed in transfected cells; host or cells: HeLa CD4 LTR beta-gal cells (CD4) co-cultured with HL2/3 cells (HIV-1 Env)
Experimental: (§3) The fusion assay assesses the ability of compounds to block cell-to-cell fusion mediated by HIV-1 Env and CD4 expressed on separate cells. This assay is sensitive to inhibitors of both the gp120/CD4 interaction and inhibitors of the X4 coreceptor. First, 5×10^3 HeLa CD4 LTR […]-gal cells are placed in microtiter wells and incubated overnight. The following day the media is removed and the HeLa CD4 LTR […]-gal cells are incubated for 1 h at 37° C. in fresh media with test compound. Following the incubation 5×10^3 HL2/3 cells are added and the incubation continued for 40 to 48 h. At 40 to 48 h […]-galactosidase enzyme expression is detected by chemiluminescence (Tropix Gal-screen™, Tropix, Bedford, Mass.). Compound toxicity is monitored on a sister plate using XTT dye reduction.

HeLa CD4 LTR […]-gal cells = assay: XTT toxicity on sister plate of the fusion assay; assay type: cell-based
Experimental: as §3

PBMCs = assay: MTS cell viability in PBMC assay; assay type: cell-based, human
Excerpt: Human peripheral blood mononuclear cells from a minimum of 2 donors, that have been blasted with PHA and IL-2, were counted, viability determined by Trypan Blue dye exclusion and mixed in equal ratios. Pooled donors were used to minimize the variability observed between individual donors which results from quantitative and qualitative differences in HIV infection and overall response to the PHA and IL-2 of primary lymphocyte populations. The cells were resuspended at 1×10^6 cells/mL in RPMI 1640 without phenol red supplemented with 15% Fetal Bovine Serum (heat inactivated), 2 mM L-glutamine, 100 U/mL penicillin, 100 μg/mL streptomycin, 10 μg/mL gentamycin and IL-2 (20 U/mL, R&D Systems, Minneapolis, Minn.). Fifty microliters of cells were then distributed to the inner 60 wells of a 96 well round bottom microtiter culture plate in a standard format developed by the Infectious Disease Research department of Southern Research Institute. Each plate contains cell control wells (cells only), virus control wells (cells plus virus), and experimental wells (drug plus cells plus virus). Serially diluted compounds are added to the microtiter plate followed by the appropriate pre-titered strain of HIV-1 or SHIV-1. All samples were assayed in triplicate with a replicate plate without virus for the determination of compound toxicity. The final volume per well was 200 µL. The assay was incubated for 6 days in a humidified atmosphere at 37° C., 5% CO2, after which supernatants were collected, for analysis of RT activity and sister plates analyzed for cell viability by MTS dye reduction. Wells were also examined microscopically and any abnormalities noted.
At assay termination the assay plates were stained with the soluble tetrazolium-based dye MTS (CellTiter® Reagent Promega, Madison, Wis.) to determined cell viability and quantify compound toxicity. […] At termination of the PBMC assay 20 µL of MTS reagent was added per well, and the wells are incubated for 4 h at 37° C.
AZT has been used as a relevant positive control compound for the individual assays.

HSV-2 = assay: Genital HSV prevention test in the mouse model; assay type: in vivo
Experimental: The efficacy of SPL-7013 was tested in a genital HSV prevention test in the mouse (strain MS) model. A dose of 15 μl of 100 mg/ml, or 10 mg/ml of the compound was instilled into the vagina of 16 animals 20 sec before HSV-2 infection. […] Total mortality in three days of the same number of control infected mice was used as an end-point of the tests.

[2] = tested on: viral strains of Herpes virus-2 resistant to modified nucleoside based antiviral agents; conditions: cell tests
[3] = 100 mg/ml intravaginal, 20 sec. prior to infection

“BHAlyslys2lys4lys8lys16[NH—CO—CH2)O-3,6-Naphthyl-(SO3Na)2]32 [SPL-7013]” was tested, and the EC90 (HIV-1 (IIIB)) was 0.954 µg/mL, the EC50 (HIV-1 (IIIB); 5 days) was 0.45 µg/mL and the EC90 (HIV-2 (ROD)) was 4.86 µg/mL. The EC50 (HIV-2 (ROD); 5 days) was 3.26 µg/mL, the “Fusion Assay TI” value [1] was over 141 and the “Fusion Assay TC50” value (HeLa CD4 LTR […]-gal cells) was over 100 µg/mL. For the same substance, the “HIV-1 RoJo Infected PBMCs TC50” value (PBMCs; plate of the HIV-1 RoJo test) was over 100 µg/mL, the “SHIV 89.6pd Infected PBMCs TC50” value (PBMCs; plate of the SHIV 89.6pd test) was over 100 µg/mL and the “Animals Protected Against Infection (%)” value (HSV-2; 10 mg/ml intravaginal, 20 sec. prior to infection) was 10/12 (83%). For the same substance, the “Animals Protected Against Disease (%)” value (HSV-2; [3]) was 11/11 (100%) and 12/12 (100%), the “Animals Protected Against Infection (%)” value (HSV-2; [3]) was 11/11 (100% and 12/12 (100% and the “Prevention of HSV-2 infection and disease (in words)” value (HSV-2; 15 μl of 100 mg/ml or 10 mg/ml intravaginal 20 sec before HSV-2 infection) was “prevented infection and disease in all animals tested”. The “Activity against resistant Herpes virus-2 strains (in words)” value [2] was “shown activity”.
